Calls of active or inactive are those of the source.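 Rule for the calls: active = AC50 no more than ten times the top concentration tested, that is within one log above it; inconclusive = flat curve fit with activity between 30% and 70%, or invalid poor fit; inactive = AC50 beyond ten times the top tested dose.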
System: S. cerevisiae Mot1-301 ts growth rescue, BacTiter-Glo ATP luminescence
Assay: growth rescue of Mot1-301 ts yeast, confirmation, SUMOylation pathway inhibitor project, whole organism, S. cerevisiae, Mot1-301 ts mutant, luminescence, dose retest (AID 463204);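 note: growth at restrictive 38.5 degrees C of Mot1-301 OY566 strain; actives raise luminescence by restoring growth of the ts mutant at high temperature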

| SMILES | AC50 |
| --- | --- |
| O=C1c2nccnc2C(=O)N1c1ccc(C(F)(F)F)cc1 | > 42 µM (inactive) |
| CCCOc1ccc(C(=O)NCc2ccco2)cc1 | > 42 µM (inactive) |
| CCC(Cc1ccccc1)NC(=O)C1CCN(c2nn3c(=O)cc(C)nc3s2)CC1 (stereo not given) | > 42 µM (inactive) |
| COCc1nnc(NC(=O)CC(C)C)s1 | > 42 µM (inactive) |
| COC(=O)c1ccccc1NC(=O)CSc1nnnn1CC(=O)O | > 42 µM (inactive) |
| Cc1ccc(S(=O)(=O)N2[C@@H](c3ccccc3F)C(C(=O)O)=CC[C@H]2c2ccc3c(c2)OCO3)cc1 | > 42 µM (inactive) |
| O=C1CC(=O)C(n2cncn2)C(c2ccc(Cl)cc2Cl)C1 (stereo not given) | > 42 µM (inactive) |
| CC1CCN(S(=O)(=O)c2ccc(NC(=O)c3cccs3)cc2)CC1 | > 42 µM (inactive) |
| CC[C@H]1CCCCc2ccccc2[C@@H](C(=O)C[C@@H](O)CC(C)=O)OC1=O | 14.2 µM |
| COc1cccc(OC)c1C(=O)N1CCN(Cc2ccccc2C)CC1 | > 42 µM (inactive) |
| CCOc1ccc(NC(=O)C2CC(=O)N3CCCN=C3S2)cc1 (stereo not given) | > 42 µM (inactive) |
| Cc1ccc(S(=O)(=O)N2[C@@H](c3ccc(Br)cc3)C(C(=O)O)=C[C@H]2CC2CCCC2)cc1 | 3.51 µM |
| COc1ccc2c(c1)[C@H]1[C@H](CO2)[C@H](c2ccccc2)[C@]2(C)C(=O)Nc3ccc(Br)cc3C(=O)N12 | 1.17 µM |
| CN(C)/C=C/C(=O)c1ccncc1 | > 42 µM (inactive) |
| Oc1c(Br)cc(Br)cc1/C=N/n1c(-c2ccccc2)n[nH]c1=S | 26.2 µM |
| Oc1cccc(/C=N/N2CCN(c3ccccn3)CC2)c1 | > 21 µM (inactive) |
| Cc1c(NC(C)c2cc(Cl)ccc2O)c(=O)n(-c2ccccc2)n1C (stereo not given) | > 42 µM (inactive) |
| CCn1nnc(-c2ccccc2NC(=O)c2cnccn2)n1 | > 42 µM (inactive) |
| CCn1c(SCC(=O)Nc2nc(-c3ccccc3)cs2)nnc1-c1ccccc1 | > 42 µM (inactive) |
| CO/N=C/c1ccc(Oc2ccc(C)cc2)nc1 | > 42 µM (inactive) |
| COCC(C)n1c(C)cc(C(=O)CSc2ccc(NC(C)=O)cc2)c1C (stereo not given) | > 42 µM (inactive) |
| CCOc1c(Cl)cc(CNCC(O)c2ccccc2)cc1OC (stereo not given) | > 42 µM (inactive) |
| COc1ccc2[nH]c(=O)c(CN(C(=O)c3ccccn3)c3ccccc3)cc2c1 | > 42 µM (inactive) |
| CCn1c(SCc2nc3ccccc3[nH]2)nnc1-c1cccnc1 | > 42 µM (inactive) |
| COc1ccc2nc(NC(=O)c3cc(S(=O)(=O)N4CCOCC4)ccc3C)sc2c1 | > 42 µM (inactive) |

| SMILES | AC50 |
| --- | --- |
| CCCCc1ccc(S(=O)(=O)NNC(=S)NCc2ccco2)cc1 | > 42 µM (inactive) |
| COc1ccc(CN2C(=O)C(=O)N(CC(N)=O)C2=O)cc1 | > 42 µM (inactive) |
| CCOc1ccc(NC(=O)CNc2ccc(C)cc2Cl)cc1 | > 42 µM (inactive) |
| O=C(O)C1CCCCC1C(=O)Nc1ccc(S(=O)(=O)N2CCCC2)cc1 (stereo not given) | > 42 µM (inactive) |
| CCCCn1c2nc3ccccc3nc2c2c(=O)n(CCC)cnc21 | > 42 µM (inactive) |
| COc1ccc(-c2nnc(SCC(C)C)o2)cc1 | 31.1 µM |
| CC(Oc1ccccc1[N+](=O)[O-])C(=O)N/N=C/c1ccoc1 (stereo not given) | > 42 µM (inactive) |
| COC(=O)CNC(=O)CSc1ccccn1 | > 42 µM (inactive) |
| CCN1CCCC1CNC(=O)Cn1cnc2ccc(S(=O)(=O)N3CCC(C)CC3)cc2c1=O (stereo not given) | > 42 µM (inactive) |
| COC(=O)c1c(C)n(Cc2ccc3c(c2)OCO3)c2ccc(O)cc12 | > 42 µM (inactive) |
| Cc1cc2c3c(c1)C1(SCC(=O)N1c1ccc(F)cc1)C(=O)N3C(C)(C)CC2C (stereo not given) | 6.97 µM |
| O=C1CC(c2ccccc2)C(=O)N1c1cccc(O)c1 (stereo not given) | > 42 µM (inactive) |
| O=C(NCCc1c[nH]c2ccccc12)c1cc(S(=O)(=O)N2CCCCC2)ccc1N1CCOCC1 | > 42 µM (inactive) |
| COc1ccc([N+](=O)[O-])c2c(=O)ccoc12 | > 42 µM (inactive) |
| CCOC(=O)Cn1c(=O)n(Cc2ccco2)c(=O)c2ccc(C(=O)NCCc3ccccc3)cc21 | > 42 µM (inactive) |
| O=C(O)c1ccc(COc2c(F)c(F)cc(F)c2F)cc1 | > 42 µM (inactive) |
| Cc1cc(F)ccc1S(=O)(=O)Nc1ccccc1C(=O)Nc1ccc2[nH]c(=O)[nH]c2c1 | > 42 µM (inactive) |
| COc1cc(S(=O)(=O)N2CCN(c3ccccc3)CC2)ccc1F | > 42 µM (inactive) |
| O=S(=O)(NCC1CCCO1)c1cc(Cl)ccc1Br (stereo not given) | > 42 µM (inactive) |
| O=C(NCC(c1cccs1)N1CCOCC1)c1ccccc1NS(=O)(=O)c1cc([N+](=O)[O-])ccc1Cl (stereo not given) | > 42 µM (inactive) |
| O=C(CN1c2ccccc2Sc2ccccc21)N/N=C/c1ccc(Cl)cc1Cl | > 21 µM (inactive) |
| COc1cccc(NC(=O)CN(C)C(=O)c2ccccc2OCc2c(C)noc2C)c1 | > 42 µM (inactive) |
| Cc1c(NP(=O)(c2ccc(Br)cc2)c2ccc(Br)cc2)c(=O)n(-c2ccccc2)n1C | > 42 µM (inactive) |
| CC(C)C(OC(=O)CN1C(=O)COc2ccccc21)C(=O)NC1CCCC1 (stereo not given) | > 42 µM (inactive) |
| CN(C)c1ccc2nc3ccc(=[N+](C)C)cc-3sc2c1 | > 42 µM (inactive) |

Reference: PubChem BioAssay AID463204 (Broad Institute, 2010)
